One compound from patent US12544375B2, “Small molecule therapeutic for parkinson's disease paired with a biomarker of therapeutic activity” (The Board of Trustees of the Leland Stanford Junior …, priority 2019, dated 2026) can be followed below.

The subject of this data set is healthy-1 or PD-2 fibroblasts. Description: Mitochondrial morphology and membrane potential, TMRM staining. It counts as cell-based, human. Particulars: 10 μM for 30 hrs. As for the experimental part: FIG. 8. Related to FIG. 2-4. Miro1 Reducer in Human Cell and Fly Models. (A) Fibroblasts from Healthy-1 and PD-2 were treated, lysed, and blotted as indicated. Band intensities are normalized to those of GAPDH from the same blots and compared to “Healthy-1, no treatment”. n=4 independent experiments. (B) Fibroblasts from PD-2 were treated and immunostained as indicated. The intensity was quantified for each cell across 264-320 cells from 3 independent experiments, compared to “no treatment”. (C) Fibroblasts were treated, immunoprecipitated (IPed) with anti-Miro1, and blotted as indicated. Similar results were observed twice. (D) Similar as in (C), fibroblasts were treated as indicated, and IPed with anti-Miro1. The GTPase activity of the IPed Miro1 protein was measured as described in Method. […] The MitoSox intensity was quantified for each cell across 106-161 cells from 3 coverslips. […] The TMRM intensity was measured for each cell across 48-60 cells from 3 independent experiments, and expressed as a fraction of the mean of “Healthy-1, no treatment”. […] The movement (the intensity of non-yellow) was quantified for each cell as described in (Tsai et al., 2014) across 22-31 cells from 3 transfections. […] (1) Left: The percentage of TH-positive iPSC-derived neurons out of total cells (Dapi-positive) is calculated after immunocytochemistry under 20× as described in FIG. 3. […]

In the case of `O=C(Nc1ccc(Nc2cc(-n3ccnc3)ncn2)cc1)Nc1cccc(F)c1` [Miro1 Reducer], the “general mitochondrial morphology and ΔΨm (TMRM)” value is on record as “did not affect”.
